# Source: US20240391904A1, “DIHYDROPYRIMIDINE BASED COMPOUND, PREPARATION METHOD THEREFOR AND USE OF THEREOF” (CHENGDU SHIBEIKANG BIOMEDICAL TECHNOLOGY CO., LTD., priority 2021, published 2024)
# Marks after values point to notes of the source that are not given here.
# Key:
# KM mice = assay: Mouse cough test (ammonia-induced coughing); format: in vivo; details: for Number of Coughs (time): mice; for reduction in the number of coughs at 3 mg/kg: compared with model group; for duration of the cough suppression action: 30 to 120 min after administration
# Description: Compounds of Example 1-24 (synthesized in the inventor's laboratory), positive control drug (gefapixant, batch No: 01030-210326-2-1, purchased from Holder Pharmaceuticals), the compound of Comparative Example 1 (synthesized in the inventor's laboratory).
# Healthy adult KM mice, half of them are male and half of them are female, 6 per group, weighing about 28-30 g.
# Most of the animal coughing models currently reported in the literatures use mechanical, chemical and electrical stimulations to stimulate the nerves and receptors of the animals to trigger coughing. According to the characteristics of the candidate compounds and the existing similar target compounds for reference, the method of concentrated ammonia induction was initially chosen to establish the cough modeling test in mice.
# Preparation of 50% ammonia solution: 2.5 ml of ammonia was dissolved in […] of a 0.9% sodium chloride solution for injection and mixed evenly.
# Preparation of a solution of the compound of Comparative Example 1: 9 mg of the compound of Comparative Example 1 was weighed and dissolved in 3 ml of a 0.5% CMC-Na solution, and mixed evenly to prepare a 3 mg/ml solution.
# Preparation of a solution of the example compounds: 9 mg of the example compound was weighed and dissolved in 3 ml of a 0.5% CMC-Na solution, and mixed evenly to prepare a 3 mg/ml solution.
# Grouping: a positive control group, a Comparative Example 1 group, Example 1 group-Example 24 group, and a model group were set up. Six KM mice were taken from each group and administered by gavage; here, the Comparative Example 1 group was given the compound of Comparative Example 1, the positive control group was given the positive control drug (gefapixant, commercially purchased), the Example groups were given the compounds prepared in the corresponding Examples, with each group given one of three dosages: 30 mg/kg, […], and 3 mg/kg; and the model group was given the same volume of 0.5% CMC-Na solution.
# 30 min, 60 min or 120 min after administration, the mice were placed in a 500 ml beaker with a cotton ball (weight 100±5 mg) containing 0.3 ml of 50% ammonia.
# (1) Judgment criteria of coughing: coughing was manifest in contraction of abdominal muscles or chest contraction, with mouth wide opening and a coughing sound.
# (2) The number of coughs (times) within 3 min was recorded with a stopwatch, and the data were statistically analyzed by software, with the data in each group shown in mean±standard deviation. A one-way analysis of variance among the groups was conducted, and P<0.05 was considered a difference having a statistical significance.
# human P2X3 receptor = target: T1, human P2X3 receptor (Homo sapiens, UniProt P56373); assay: In vitro bioactivity evaluation: FLIPR antagonist mode, HEK 293 cells stably transfected with human P2X3 receptor, BZATP agonist
# T1 sequence (P56373 1-397): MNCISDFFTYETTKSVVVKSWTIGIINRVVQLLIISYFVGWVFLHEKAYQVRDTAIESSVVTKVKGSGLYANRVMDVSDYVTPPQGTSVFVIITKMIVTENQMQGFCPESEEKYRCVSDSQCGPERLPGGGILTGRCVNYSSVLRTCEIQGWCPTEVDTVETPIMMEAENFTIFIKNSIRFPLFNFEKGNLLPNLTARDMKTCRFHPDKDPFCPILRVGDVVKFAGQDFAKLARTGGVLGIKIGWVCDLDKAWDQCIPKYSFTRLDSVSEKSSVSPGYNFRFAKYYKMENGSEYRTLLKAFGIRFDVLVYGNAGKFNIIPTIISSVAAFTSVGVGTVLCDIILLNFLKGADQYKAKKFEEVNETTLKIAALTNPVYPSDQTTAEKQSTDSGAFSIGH
# Description: Cell culture medium: DMEM high glucose; 10% FBS; 1% PenStrep.
# The Petri dish was placed in an incubator for 1-3 minutes or until the cells were digested, 3 mL of a complete medium was then added to terminate the digestion, and the cell density was determined by a cell counter. • 2) After centrifugation at 1000 rpm/min for 5 min, the cells were resuspended in a growth medium and the volume of the suspension was adjusted to reach a cell density of 4×10^5 cells/mL (1×10^4 cells/25 μL). • 3) 10 μL of 5× Matrigel was added into a black microplate, and the microplate was placed in an incubator for 15 min. The microplate was removed and invertedly centrifuged at 300 g/min for 30 s to remove the 5× Matrigel.
# [1] = 30 mg/kg by gavage, 30 min after administration, coughs within 3 min, ammonia-induced
# [2] = 30 mg/kg by gavage, 60 min after administration, coughs within 3 min (Table 6)
# [3] = 30 mg/kg by gavage, 120 min after administration, coughs within 3 min
# [4] = 30 mg/kg, 30 min after administration
# [5] = 3 mg/kg by gavage, 60 min after administration, coughs within 3 min
# [6] = 10 mg/kg by gavage, 60 min after administration, coughs within 3 min
# [7] = 30 mg/kg by gavage, 60 min after administration, coughs within 3 min (Table 5)
Structure (SMILES),Number of Coughs (time) (KM mice; [1]),IC50 (human P2X3 receptor),cough suppressing effect compared with the positive compound (KM mice; [4]),further results
"C[C@@H](Cn1c(=O)cc(Nc2ccc(Oc3ncccc3F)cc2)n(Cc2ccc(Cl)cc2)c1=O)C(=O)O [Comparative Example 1, reference compound]",25.61* time,10.1 to 50 nM,,"cough suppressing effect at 120 min (KM mice; 30 mg/kg, 120 min after administration): did not have a significant cough suppressing effect at 120 min; Number of Coughs (time) (KM mice; [2]): 24.12** time; Number of Coughs (time) (KM mice; [3]): 44.17 time"
C[C@@H](Cn1c(=O)cc(Nc2ccc(Oc3cnccn3)cc2)n(Cc2ccc(Cl)cc2)c1=O)C(=O)O [Compound 2],27.67* time,,,
C[C@@H](Cn1c(=O)cc(Nc2ccc(Oc3cnccn3)cc2)n(Cc2ccc(Cl)cc2)c1=O)C(=O)NS(C)(=O)=O [Compound 3],16.21** time,10.1 to 50 nM,stronger than that of the positive compound,reduction in the number of coughs at 3 mg/kg (KM mice; 60 min after administration): statistically significant (P<0.01) reduction in the number of coughs; cough suppressing efficacy at 10 mg/kg (KM mice; 60 min after administration): improved cough suppressing efficacy than the positive control drug; duration of the cough suppression action (KM mice; 30 mg/kg): significantly prolonged compared with that of the compound of Comparative Example 1; Number of Coughs (time) (KM mice; [5]): 21.14** time; Number of Coughs (time) (KM mice; [6]): 19.83**^Δ time; Number of Coughs (time) (KM mice; [7]): 16.02** time; Number of Coughs (time) (KM mice; [2]): 16.02** time; Number of Coughs (time) (KM mice; [3]): 15.13**^Δ time
COC(=O)C(C)(C)Cn1c(=O)cc(Nc2ccc(Oc3cnccn3)cc2)n(Cc2ccc(Cl)cc2)c1=O [Compound 4],15.61** time,< 10 nM,stronger than that of the positive compound,
CC(C)(Cn1c(=O)cc(Nc2ccc(Oc3cnccn3)cc2)n(Cc2ccc(Cl)cc2)c1=O)C(=O)O [Compound 5],33.67 time,,,
CC(C)(Cn1c(=O)cc(Nc2ccc(Oc3cnccn3)cc2)n(Cc2ccc(Cl)cc2)c1=O)C(=O)NS(C)(=O)=O [Compound 6],17.81** time,10.1 to 50 nM,stronger than that of the positive compound,
C[C@@H](Cn1c(=O)cc(Nc2ccc(Oc3ccccn3)cc2)n(Cc2ccc(Cl)cc2)c1=O)C(=O)O [Compound 7],15.20** time,< 10 nM,stronger than that of the positive compound,reduction in the number of coughs at 3 mg/kg (KM mice; 60 min after administration): statistically significant (P<0.01) reduction in the number of coughs; cough suppressing efficacy at 10 mg/kg (KM mice; 60 min after administration): improved cough suppressing efficacy than the positive control drug; Number of Coughs (time) (KM mice; [5]): 23.34** time; Number of Coughs (time) (KM mice; [6]): 20.83**^Δ time; Number of Coughs (time) (KM mice; [7]): 15.00** time; Number of Coughs (time) (KM mice; [2]): 15.00** time; Number of Coughs (time) (KM mice; [3]): 38.13 time
COC(=O)[C@@H](C)Cn1c(=O)cc(Nc2ccc(Oc3ccccn3)cc2)n(Cc2ccc(Cl)cc2)c1=O [Compound 8],25.00* time,10.1 to 50 nM,,Number of Coughs (time) (KM mice; [7]): 27.33* time
CC(C)(Cn1c(=O)cc(Nc2ccc(Oc3ccccn3)cc2)n(Cc2ccc(Cl)cc2)c1=O)C(=O)O [Compound 10],17.20** time,< 10 nM,stronger than that of the positive compound,"duration of the cough suppression action (KM mice; 30 mg/kg): short duration of action; cough suppressing effect at 60 min (KM mice; 30 mg/kg, 60 min after administration): no cough suppressing effect at 60 min; Number of Coughs (time) (KM mice; [7]): 40.17 time"
COC(=O)C(C)(C)Cn1c(=O)cc(Nc2ccc(Oc3ccccn3)cc2)n(Cc2ccc(Cl)cc2)c1=O [Compound 11],31.00 time,10.1 to 50 nM,,
O=C(O)C1(Cn2c(=O)cc(Nc3ccc(Oc4ccccn4)cc3)n(Cc3ccc(Cl)cc3)c2=O)CC1 [Compound 13],25.60 time,10.1 to 50 nM,,
COC(=O)C1(Cn2c(=O)cc(Nc3ccc(Oc4ccccn4)cc3)n(Cc3ccc(Cl)cc3)c2=O)CC1 [Compound 14],32.17 time,10.1 to 50 nM,,
C[C@@H](Cn1c(=O)cc(Nc2ccc(Oc3ccccn3)cc2)n(Cc2ccc(C(F)(F)F)cc2)c1=O)C(=O)NS(C)(=O)=O [Compound 18],20.57** time,,,
"C[C@@H](Cn1c(=O)cc(Nc2ccc(Oc3ccc(OC(F)(F)F)cn3)cc2)n(Cc2ccc(Cl)cc2)c1=O)C(=O)NS(C)(=O)=O [Compound 19, (S)-3-(3-(4-chlorobenzyl)-2,6-dioxo-4-(4-(5-((5-trifluoromethoxy)pyridin-2-yl)oxyphenyl)amino)-3,6-dihydropyrimidin-1(2H)-yl)-2-methyl-N-(sulfonyl)propionamide group]",17.62** time,,stronger than that of the positive compound,
"C[C@@H](Cn1c(=O)cc(Nc2ccc(Oc3ccc(OC(F)F)cn3)cc2)n(Cc2ccc(Cl)cc2)c1=O)C(=O)NS(C)(=O)=O [Compound 20, (S)-3-(3-(4-chlorobenzyl)-2,6-dioxo-4-(4-(5-((5-difluoromethoxy)pyridin-2-yl)oxyphenyl)amino)-3,6-dihydropyrimidin-1(2H)-yl)-2-methyl-N-(sulfonyl)propionamide group]",15.17** time,10.1 to 50 nM,stronger than that of the positive compound,
C[C@@H](Cn1c(=O)cc(Nc2ccc(Oc3ccc(Cl)cn3)cc2)n(Cc2ccc(Cl)cc2)c1=O)C(=O)NS(C)(=O)=O [Compound 21],18.83** time,,,
C[C@@H](Cn1c(=O)cc(Nc2ccc(Oc3ncccn3)cc2)n(Cc2ccc(Cl)cc2)c1=O)C(=O)NS(C)(=O)=O [Compound 22],35.61 time,50.1 to 100 nM,,
C[C@@H](Cn1c(=O)cc(Nc2ccc(Oc3ccccc3)cc2)n(Cc2ccc(Cl)cc2)c1=O)C(=O)NS(C)(=O)=O [Compound 23],34.67 time,50.1 to 100 nM,,
